Source: patent publication US20260262643A1, “HERBICIDAL BENZOXAZINES” (FMC CORPORATION, priority 2022, published 2026)

Experiments:
[1] = test system: barnyardgrass; experiment: Test C preemergence; format: in vivo, Echinochloa crusgalli; settings: for Barnyardgrass plant response rating: preemergence; for Plant response rating, Barnyardgrass: Preemergence
Method in brief: (§1)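 Pre: seeds in loam/sand, directed soil spray. Post: 1–2 leaf plants, 2–10 cm. Cmpd in non-phytotoxic solvent + surfactant. Greenhouse 10 d; visual rating vs untreated, 0 = none, 100 = complete control.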

[2] = test system: blackgrass; experiment: Test C preemergence; format: in vivo, Alopecurus myosuroides; settings: for Plant response rating, Blackgrass: Preemergence; for Blackgrass plant response rating: preemergence
Method in brief: as §1

[3] = test system: corn; experiment: Test C preemergence; format: in vivo, Zea mays; settings: for Plant response rating, Corn: Preemergence; for Corn plant response rating: preemergence
Method in brief: as §1

[4] = test system: green foxtail; experiment: Test C preemergence; format: in vivo, Setaria viridis; settings: for Plant response rating, Foxtail, Green: Preemergence; for Foxtail, Green plant response rating: preemergence
Method in brief: as §1

[5] = test system: kochia; experiment: Test C preemergence; format: in vivo, Bassia scoparia; settings: for Plant response rating, Kochia: Preemergence; for Kochia plant response rating: preemergence
Method in brief: as §1

[6] = test system: oat, wild; experiment: Test C preemergence; format: in vivo, Avena fatua; settings: for Plant response rating, Oat, Wild: Preemergence; for Oat, Wild plant response rating: preemergence
Method in brief: as §1

[7] = test system: pigweed, palmer; experiment: Test C preemergence; format: in vivo, Amaranthus palmeri; settings: 0 to 100 scale (0 no effect, 100 complete control); for Pigweed, Palmer plant response rating: preemergence
Method in brief: as §1

[8] = test system: ragweed; experiment: Test C preemergence; format: in vivo, Ambrosia artemisiifolia; settings: for Plant response rating, Ragweed: Preemergence; for Ragweed plant response rating: preemergence
Method in brief: as §1

[9] = test system: ryegrass, Italian; experiment: Test C preemergence; format: in vivo, Lolium multiflorum; settings: for Plant response rating, Ryegrass, Italian: Preemergence; for Ryegrass, Italian plant response rating: preemergence
Method in brief: as §1

[10] = test system: soybean; experiment: Test C preemergence; format: in vivo, Glycine max; settings: for Plant response rating, Soybean: Preemergence; for Soybean plant response rating: preemergence
Method in brief: as §1

[11] = test system: wheat; experiment: Test C preemergence; format: in vivo, Triticum aestivum; settings: for Plant response rating, Wheat: Preemergence; for Wheat plant response rating: preemergence
Method in brief: as §1

[12] = test system: barnyardgrass; experiment: Test C postemergence; format: in vivo, Echinochloa crusgalli; settings: 10 days
Method in brief: as §1

[13] = test system: blackgrass; experiment: Test C postemergence; format: in vivo, Alopecurus myosuroides; settings: 10 days
Method in brief: as §1

[14] = test system: corn; experiment: Test C postemergence; format: in vivo, Zea mays; settings: 10 days
Method in brief: as §1

[15] = test system: green foxtail; experiment: Test C postemergence; format: in vivo, Setaria viridis; settings: 10 days
Method in brief: as §1

[16] = test system: kochia; experiment: Test C postemergence; format: in vivo, Bassia scoparia; settings: 10 days
Method in brief: as §1

[17] = test system: oat, wild; experiment: Test C postemergence; format: in vivo, Avena fatua; settings: 10 days
Method in brief: as §1

[18] = test system: pigweed, palmer; experiment: Test C postemergence; format: in vivo, Amaranthus palmeri; settings: 10 days
Method in brief: as §1

[19] = test system: ragweed; experiment: Test C postemergence; format: in vivo, Ambrosia artemisiifolia; settings: 10 days
Method in brief: as §1

[20] = test system: ryegrass, Italian; experiment: Test C postemergence; format: in vivo, Lolium multiflorum; settings: 10 days
Method in brief: as §1

[21] = test system: soybean; experiment: Test C postemergence; format: in vivo, Glycine max; settings: 10 days
Method in brief: as §1

[22] = test system: wheat; experiment: Test C postemergence; format: in vivo, Triticum aestivum; settings: 10 days
Method in brief: as §1

[23] = test system: galium; experiment: Test C postemergence; format: in vivo, Galium aparine; settings: 10 days
Method in brief: as §1

[24] = test system: horseweed; experiment: Test C postemergence; format: in vivo, Erigeron canadensis; settings: 10 days
Method in brief: as §1

[25] = test system: barnyardgrass; experiment: Test D flooded paddy test; format: in vivo, Echinochloa crus-galli; settings: 250 g ai/ha, applied to paddy water, visual rating after 13 to 14 days, scale 0 to 100 (0 no effect, 100 complete control)
Method in brief: (§2)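 Post-flood water application at the 2-leaf stage; 3 cm flood depth kept constant; visual control rating 0–100 after 13–14 days greenhouse growth.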

[26] = test system: ducksalad; experiment: Test D flooded paddy test; format: in vivo, Heteranthera limosa; settings: 250 g ai/ha, applied to paddy water, visual rating after 13 to 14 days, scale 0 to 100 (0 no effect, 100 complete control)
Method in brief: as §2

[27] = test system: rice; experiment: Test D flooded paddy test; format: in vivo, Oryza sativa; settings: 250 g ai/ha, applied to paddy water, visual rating after 13 to 14 days, scale 0 to 100 (0 no effect, 100 complete control)
Method in brief: as §2

[28] = test system: sedge, umbrella; experiment: Test D flooded paddy test; format: in vivo, Cyperus difformis; settings: 250 g ai/ha, applied to paddy water, visual rating after 13 to 14 days, scale 0 to 100 (0 no effect, 100 complete control)
Method in brief: as §2

[29] = 500 g ai/ha, visual rating after 10 days, 0 to 100 scale (0 no effect, 100 complete control)
[30] = Test C, 125 g ai/ha, 0 to 100 scale (0 no effect, 100 complete control)
[31] = 125 g ai/ha, postemergence, 0 to 100 scale, 0 no effect, 100 complete control
[32] = Postemergence, 500 g ai/ha, visual 0 to 100 scale (0 no effect, 100 complete control)
[33] = 500 g ai/ha, 0 to 100 scale (0 no effect, 100 complete control)
[34] = 125 g ai/ha, 0 to 100 scale, 0 no effect, 100 complete control
[35] = 500 g ai/ha, postemergence, 0 to 100 scale (0 no effect, 100 complete control)
[36] = Postemergence, 125 g ai/ha, 0 to 100 scale (0 no effect, 100 complete control)

For `C[C@H]1CN(C(=O)c2cccc(-n3cnc(C(C)(C)O)n3)c2)c2cccc(Cl)c2O1` [Compound 169], the “Barnyardgrass plant response rating” value ([1]; 125 g ai/ha, 0 to 100 scale (0 no effect, 100 complete control)) was 80, the “Plant response rating, Barnyardgrass” value [1, 29] was 100 and the “Plant response rating, Blackgrass” value [2, 29] was 90. The “Blackgrass plant response rating” value [2, 30] was 90, the “Plant response rating, Corn” value [3, 29] was 40 and the “Corn plant response rating” value [3, 30] was 0. The “Plant response rating, Foxtail, Green” value [4, 29] was 100, the “Foxtail, Green plant response rating” value [4, 30] was 100 and the “Plant response rating, Kochia” value [5, 29] was 100. For the same molecule, the “Kochia plant response rating” value [5, 30] was 100, the “Plant response rating, Oat, Wild” value [6, 29] was 90 and the “Oat, Wild plant response rating” value [6, 30] was 80. For the same molecule, the “Plant response rating, Pigweed, Palmer” value ([7]; Preemergence, 500 g ai/ha, visual rating after 10 days) was 100, the “Pigweed, Palmer plant response rating” value ([7]; Test C, 125 g ai/ha) was 100 and the “Plant response rating, Ragweed” value [8, 29] was 100. For the same molecule, the “Ragweed plant response rating” value [8, 30] was 50, the “Plant response rating, Ryegrass, Italian” value [9, 29] was 100 and the “Ryegrass, Italian plant response rating” value [9, 30] was 90. The “Plant response rating, Soybean” value [10, 29] was 90, the “Soybean plant response rating” value [10, 30] was 90 and the “Plant response rating, Wheat” value [11, 29] was 90. For the same molecule, the “Wheat plant response rating” value [11, 30] was 30, the “Plant response rating, Barnyardgrass” value [12, 31] was 20 and the “Plant response rating, Barnyardgrass” value [12, 32] was 70. The “Plant response rating, Blackgrass” value [13, 31] was 90, the “Plant response rating, Blackgrass” value [13, 32] was 100 and the “Plant response rating, Corn” value [14, 31] was 80. The “Plant response rating, Corn” value [14, 32] was 90, the “Plant response rating, Foxtail, Green” value [15, 31] was 30 and the “Plant response rating, Foxtail, Green” value [15, 32] was 90. For the same molecule, the “Plant response rating, Kochia” value [16, 31] was 90, the “Plant response rating, Kochia” value [16, 32] was 90 and the “Plant response rating, Oat, Wild” value [17, 31] was 80. For the same molecule, the “Plant response rating, Oat, Wild” value [17, 32] was 90, the “Plant response rating, Pigweed, Palmer” value [18, 31] was 70 and the “Plant response rating, Pigweed, Palmer” value [18, 32] was 90. For the same molecule, the “Plant response rating, Ragweed” value [19, 31] was 50, the “Plant response rating, Ragweed” value [19, 32] was 90 and the “Plant response rating, Ryegrass, Italian” value [20, 31] was 60. For the same molecule, the “Plant response rating, Ryegrass, Italian” value [20, 32] was 100, the “Plant response rating, Soybean” value [21, 31] was 100 and the “Plant response rating, Soybean” value [21, 32] was 100. The “Plant response rating, Wheat” value [22, 31] was 6, the “Plant response rating, Wheat” value [22, 32] was 90 and the “Plant response rating, Galium” value [23, 31] was 100. For the same molecule, the “Plant response rating, Galium” value [23, 32] was 100, the “Plant response rating, Horseweed” value [24, 31] was 0 and the “Plant response rating, Horseweed” value [24, 32] was 40. The “Plant response rating, Barnyardgrass (Flood)” value [25] was 0, the “Plant response rating, Ducksalad (Flood)” value [26] was 90 and the “Plant response rating, Rice (Flood)” value [27] was 0. For the same molecule, the “Plant response rating, Sedge, Umbrella (Flood)” value [28] was 85.
With `Cc1nnc(-c2cccc(C(=O)N3C[C@H](C)Oc4c(Cl)cccc43)c2)o1` [Compound 355] the “Barnyardgrass plant response rating” value [1, 33] was 0, the “Plant response rating, Barnyardgrass” value [1, 34] was 0 and the “Blackgrass plant response rating” value [2, 33] was 0. For the same molecule, the “Plant response rating, Blackgrass” value [2, 34] was 0, the “Corn plant response rating” value [3, 33] was 0 and the “Plant response rating, Corn” value [3, 34] was 0. The “Foxtail, Green plant response rating” value [4, 33] was 20, the “Plant response rating, Foxtail, Green” value [4, 34] was 20 and the “Kochia plant response rating” value [5, 33] was 0. For the same molecule, the “Plant response rating, Kochia” value [5, 34] was 0, the “Oat, Wild plant response rating” value [6, 33] was 0 and the “Plant response rating, Oat, Wild” value [6, 34] was 0. For the same molecule, the “Pigweed, Palmer plant response rating” value ([7]; 500 g ai/ha) was 0, the “Ragweed plant response rating” value [8, 33] was 0 and the “Plant response rating, Ragweed” value [8, 34] was 0. The “Ryegrass, Italian plant response rating” value [9, 33] was 20, the “Plant response rating, Ryegrass, Italian” value [9, 34] was 20 and the “Soybean plant response rating” value [10, 33] was 0. The “Plant response rating, Soybean” value [10, 34] was 20, the “Wheat plant response rating” value [11, 33] was 0 and the “Plant response rating, Wheat” value [11, 34] was 0. For the same molecule, the “Plant response rating, Barnyardgrass” value [12, 35] was 10, the “Plant response rating, Barnyardgrass” value [12, 36] was 10 and the “Plant response rating, Blackgrass” value [13, 35] was 0. The “Plant response rating, Blackgrass” value [13, 36] was 0, the “Plant response rating, Corn” value [14, 35] was 10 and the “Plant response rating, Corn” value [14, 36] was 10. For the same molecule, the “Plant response rating, Foxtail, Green” value [15, 35] was 10, the “Plant response rating, Foxtail, Green” value [15, 36] was 10 and the “Plant response rating, Kochia” value [16, 35] was 0. The “Plant response rating, Oat, Wild” value [17, 35] was 0, the “Plant response rating, Oat, Wild” value [17, 36] was 0 and the “Plant response rating, Pigweed, Palmer” value [18, 35] was 10. The “Plant response rating, Ragweed” value [19, 35] was 0, the “Plant response rating, Ryegrass, Italian” value [20, 35] was 0 and the “Plant response rating, Ryegrass, Italian” value [20, 36] was 0. For the same molecule, the “Plant response rating, Soybean” value [21, 35] was 50, the “Plant response rating, Wheat” value [22, 35] was 10 and the “Plant response rating, Wheat” value [22, 36] was 10. The “Plant response rating, Galium” value [23, 35] was 10, the “Plant response rating, Horseweed” value [24, 35] was 0 and the “Plant response rating, Horseweed” value [24, 36] was 0. The “Plant response rating, Barnyardgrass (Flood)” value [25] was 0, the “Plant response rating, Ducksalad (Flood)” value [26] was 0 and the “Plant response rating, Rice (Flood)” value [27] was 0. The “Plant response rating, Sedge, Umbrella (Flood)” value [28] was 0.
